Data on 2 compounds can be found in patent publication US20250041277A1, “METHODS AND DOSING REGIMENS COMPRISING A CDK2 INHIBITOR AND A CDK4 INHIBITOR FOR TREATING CANCER” (PFIZER INC., priority 2021, published 2025).

In test [1] the test system is NCI-H1792 lung adenocarcinoma (LUAD) cells. As to the kind of experiment: Spheroid growth inhibition (SGI) assay, NCI-H1792. The test is classed as cell-based. The following applies: NCI-H1792 spheroids; 30 nM palbociclib, 300 nM PF-07220060, 300 nM PF-07104091; 14 days. The procedure:
(§1) NCI-H1792 and NCI-H23 lung adenocarcinoma (LUAD) cells lines were obtained from ATCC and maintained in RPMI 1640 medium supplemented with 10% fetal bovine serum and penicillin-streptomycin as per ATCC guidelines. Cells were maintained in humidified incubator at 37° C. with 5% CO2.
(§2) Spheroid assays were performed in 96 well ultralow attachment plates (ULA-96U) from Nexcelom & Thermo Fisher Scientific. […] To aid spheroid formation, dispensed cells were centrifuged at 220×g for 6 minutes in the ultralow attachment plates and allowed to form compact spheroids for 4 days prior to the initiation of treatment. […] DMSO (0.01%) was used as the vehicle control. DMSO and all compounds were diluted in cell medium. Medium and compounds were replenished twice per week, with 3 and 4-day intervals. Replenishment was executed by aspirating 150 μL of medium per well without disturbing the spheroid and then adding the same volume of premixed medium/compound solution to spheroids. Spheroid diameter was quantified immediately following each medium change twice a week (on every 3rd or 4th day) throughout the duration of the assay.
(§3) Average diameters of tumor spheroids were plotted in GraphPad Prism 8 and the AUC calculated. AUC baseline was determined by the average tumor spheroid diameter at Day 0 in the vehicle (DMSO) controls. Spheroid growth inhibition, or SGI, was calculated as follows: SGI=(1−AUC treatment/AUC DMSO)×100%. SGI for all treatment arms was derived at the timepoint when the vehicle (DMSO) treated spheroids reach their maximal diameter (usually close to 1 mm but this can differ among cell lines); this corresponds to the last time point taken for the vehicle (DMSO) treated spheroids. SEM was calculated based on n=10 to 12 wells per test group.
(§4) Growth of lung adenocarcinoma multicellular tumor spheroids (MCTS) was monitored over time to assess: (i) amplitude of response (SGI) and (ii) duration of response to the CDK4 inhibitor PF-07220060 as a single agent, and in combination with the CDK2 inhibitor PF-07104091.

A further test has as its system ABC1. As to the kind of experiment: Combinatorial activity in LUAD cell line ABC1. The class given is cell-based. The following applies: Homo sapiens, ABC-1; ABC1, WT; single agent; read-out: (nM) s.a. The procedure: (§5) Combinatorial activity of PF-07104091 and PF-07220060 was assessed in LUADs as single agents (s.a.) or in combination.
For the next test, the system named is A427. Kind of test: Combinatorial activity in LUAD cell line A427. The class given is cell-based. The settings on record: Homo sapiens, A-427; A427, KRAS G12D; single agent; read-out: (nM) s.a. The procedure:
as §5

The test system of the next test is CAL12T. Kind of test: Combinatorial activity in LUAD cell line CAL12T. The test is classed as cell-based. The settings on record: Homo sapiens, CAL-12T, WT, single agent, read-out: (nM) s.a. As to the method:
as §5

Test [2] has as its system NCI-H23 lung adenocarcinoma (LUAD) cells. As to the kind of experiment: Spheroid growth inhibition (SGI) assay, NCI-H23. The following applies: NCI-H23 spheroids; 30 nM palbociclib, 300 nM PF-07220060, 300 nM PF-07104091; 14 days. The test is classed as cell-based. The procedure: as §1, §2, §3, §4
Test [3] deals with MCF7 breast cancer cell line. As to the kind of experiment: Cell proliferation combination assay (Loewe Volume, CI), MCF7. The following applies: MCF7 cells; for Best CI: Best CI Level 70. The test is classed as cell-based, Human. As to the method: The combination effects of PF-07104091 and PF-07220060 were evaluated in a cell proliferation assay with MCF7 and T47D BC cell lines.
Drug combinations were analyzed using the Dose Equivalence Principle, and the Loewe Volume score. When modeling synergy using the Dose Equivalence Principle, the Loewe Volume score for the combination compounds should be greater than the compound self-cross controls, and the Combination Index (C) score for the combination compounds should be less than compound self-cross controls. […] The isobolograms set to an anti-proliferation threshold at 70% confirmed a synergistic response.

The subject of a further test is NCIH2228 (RB mut). As to the kind of experiment: Combinatorial activity in LUAD cell line NCIH2228. The class given is cell-based. The settings on record: Homo sapiens, NCI-H2228, WT, single agent, read-out: (nM) s.a. As to the method: as §5
The test system of the next test is NCIH2126. As to the kind of experiment: Combinatorial activity in LUAD cell line NCIH2126. The class given is cell-based. The following applies: Homo sapiens, NCI-H2126; NCIH2126, WT; single agent; read-out: (nM) s.a. The procedure:
as §5

In a further test the test system is NCIH2023. Kind of test: Combinatorial activity in LUAD cell line NCIH2023. The test is classed as cell-based. The settings on record: NCI-H2023; NCIH2023, WT; single agent; read-out: (nM) s.a. The procedure: as §5
Test [4] has as its system HCC1428 breast cancer model. As to the kind of experiment: In vivo efficacy, HR+/HER2− HCC1428 breast cancer model (Example 4). The settings on record: HCC1428, Day 42; PO BID: PF-07104091 120 mpk, PF-07220060 60 mpk, PF-06873600 30 mpk, palbociclib 10 mpk; fulvestrant 10 mpk SC. Details: species or system NSG mice. The procedure:
Female NSG mice (Jackson Lab) were subcutaneously implanted with fragment (27 mm^3 to 64 mm^3 size) into the dorsal region. All mice for HCC1428, MCF7 and ST941 PBR studies were supplemented with 8.5 μg/mL estradiol water (β-Estradiol Sigma-Aldrich, cat #E2758-5G) and gave ad libitum till end of study. For the in vivo efficacy studies, tumor volume and body weights were measured twice a week. Tumor volume was calculated using the [(Length×Width×Width)/2)] formula. TGI was calculated as 100*(1−ΔT/ΔC). The ΔC (ΔT) was obtained by subtracting the mean tumor burden in the vehicle (treated) group on the first day of treatment (Day 0) from the mean tumor burden in vehicle (treated) group on the assessment day. Statistical analysis was performed using ANCOVA when the mean tumor volume in vehicle treated mice reached tumor cutoff size.
The HCC1428 model was established by implanting passage 1 tumor fragments into recipient mice. To establish the HCC1428 donor mice, tumor cells (5×10^6 cell/mouse with 50% Cultrex® Basement Membrane Matrix) were subcutaneously implanted in female NSG mice. Once reaching a range of 700 to 800 mm^3, donor tumors were subsequently transplanted into secondary recipient mice for a study expansion. […] PF-07104091 (lot 022), PF-07220060 (lot CPo126812-01-SY-5700-01), PF-06873600 (lot 022) and PD-0332991 (lot GR08498) were administered (PO) BID (7 hr apart) while fulvestrant (lot 20160224-2) at 10 mg/kg, SC twice in the first week, then weekly afterwards. All mice received treatment continuously until Day 42. TGI was assessed on Day 42 post first dose.

Take `CC(C)n1c(C(C)(C)O)nc2c(F)cc(-c3nc(N[C@@H]4CCOC[C@H]4O)ncc3Cl)cc21` [PF-07220060, 1,5-anhydro-3-({5-chloro-4-[4-fluoro-2-(2-hydroxypropan-2-yl)-1-(propan-2-yl)-1H-benzimidazol-6-yl]pyrimidin-2-yl}amino)-2,3-dideoxy-D-threo-pentitol]: the “SGI (%)” value in test [1] is 81%; in test [2], 35%. The IC50 in the test on ABC1 is 408 nM; with A427, 124 nM; with CAL12T it was 210 nM; with NCIH2228 (RB mut), 839 nM; in the test on NCIH2126 it was 255 nM; in the test on NCIH2023 it was 310 nM. In test [3], the “Loewe Volume” value was −0.02. Further, the “Best CI” value in test [3] was determined as 1.06. This compound also gave a TGI % in test [4] of 70%.
As to `COCc1cc(C(=O)Nc2cc([C@H]3CC[C@@H](OC(=O)NC(C)C)C3)[nH]n2)n(C)n1` [PF-07104091, (1R,3S)-3-[3-({[3-(methoxymethyl)-1-methyl-1H-pyrazol-5-yl]carbonyl}amino)-1H-pyrazol-5-yl]cyclopentyl propan-2-ylcarbamate], the “SGI (%)” value in [1] is on record as 12%; in [2], 9%. The IC50 in the test with ABC1 is 716 nM; in the test on A427, 276 nM; with CAL12T, 220 nM; in the test with NCIH2228 (RB mut), ~1000 nM; with NCIH2126, 372 nM; in the test with NCIH2023, > 450 nM. Further, the “Loewe Volume” value in test [3] was −0.08. In addition, in [3], the “Best CI” value is on record as 1.04. For the same compound, the TGI % in test [4] is given as 79%.
